This data set can be described thus: Percent mRNA encapsulation of lipid nanoparticle formulations (fluorescence-based detection of mRNA). To be noted: LNP of cationic lipid:DOPE:DMG-PEG 2K (molar ratio 60:35:5); 5 mg mRNA LNP preparations. Format: physicochemical. The source says: In some embodiments, one particular application of the novel lipid composition comprising a sterol-based cationic lipid, a helper lipid, and a PEG or PEG-modified lipid is pulmonary delivery of mRNA, such as CFTR mRNA.
In this process, the lipids dissolved in ethanol and the mRNA dissolved in citrate buffer were mixed using a pump system. […] The resultant formulation mixture was in citrate buffer containing 20% ethanol. The formulation was subjected to a buffer exchange and the resultant formulation was adjusted to the desired mRNA concentration and stored frozen until further use. Final concentration: 0.5 mg/mL CFTR mRNA (encapsulated). % mRNA Encapsulation: 90%. Size: 60 nm. PDI: 0.14.

Turning to `CC(C)CCCC(C)C1CCC2C3CC=C4CC(OC(=O)CCc5cnc[nH]5)CCC4(C)C3CCC12C` [ICE, (3S, 10R, 13R, 17R)-10, 13-dimethyl-17-((R)-6-methylheptan-2-yl)-2,3,4,7,8,9, 10, 11, 12, 13, 14, 15, 16, 17-tetradecahydro-1H-cyclopenta[a]phenanthren-3-yl 3-(1H-imidazol-4-yl)propanoate], the “% mRNA encapsulation” value is given as 90%.

As to `CCCCCCCC/C=C\CCCCCCCCOCC(CN(C)C)OCCCCCCCC/C=C\CCCCCCCC` (centres unmarked) [DODMA, 1,2-Dioleyloxy-3-dimethylaminopropane], the “% mRNA encapsulation” value was 51%.

In the case of `CCCCCCCCCCC(O)CN(CCCC(C)C1OC(=O)C(C(C)CCCN(CC(O)CCCCCCCCCC)CC(O)CCCCCCCCCC)OC1=O)CC(O)CCCCCCCCC` (centres unmarked) [Target 24, 3-(5-(bis(2-hydroxydodecyl)amino)pentan-2-yl)-6-(5-((2-hydroxydodecyl)(2-hydroxyundecyl)amino)pentan-2-yl)-1,4-dioxane-2,5-dione], the “% mRNA encapsulation” value is 59%.

Take `CCCCCCCC/C=C\CCCCCCCC(=O)OCC(CN(C)C)OC(=O)CCCCCCC/C=C\CCCCCCCC` (centres unmarked) [DODAP, 1,2-dioleoyl-3-dimethylammonium-propane]: the “% mRNA encapsulation” value is 49%.

Take `CCCCCCCCCCC(O)CN(CCN1CCN(CCN(CC(O)CCCCCCCCCC)CC(O)CCCCCCCCCC)CC1)CCN(CC(O)CCCCCCCCCC)CC(O)CCCCCCCCCC` (centres unmarked) [C12-200]: the “% mRNA encapsulation” value was determined as 39%.

The values are drawn from patent publication US11013812B2, “Ice-based lipid nanoparticle formulation for delivery of mRNA” (Translate Bio, Inc., priority 2016, dated 2021).
